# Experimental data as given in patent publication US20190151241A1, “STABLE PHARMACEUTICAL INJECTABLE COMPOSITIONS OF MICAFUNGIN” (CADILA HEALTHCARE LIMITED, priority 2017, published 2019).
# Starred links: 1 amine or outer side, 2 acyl side, 3 side chain; linkers in the order of their positions; H or OH if unused. Positions of bridges follow the written chain, without caps; N, C: chain ends. Non-standard residues stand in square brackets, D forms with d. Residues, ends and D or L forms follow the SMILES beside them. ξ: configuration not given here. *: point of attachment. hTyr(3S-OH,4S-OH,3'-OSO3H) = N[C@H](C(=O)O)[C@H](O)[C@@H](O)c1ccc(O)c(OS(=O)(=O)O)c1; Orn(4R-OH,5R-OH) = O=C([C@H](C[C@@H](O)[C@@H](O)N[*:3])N[*:1])[*:2]; Pro(3S-OH,4S-Me) = C[C@H]1CN[C@H](C(=O)O)[C@H]1O; X1 = CCCCCOc1ccc(-c2cc(-c3ccc(C(=O)*)cc3)no2)cc1; Gln(3R-OH) = NC(=O)C[C@@H](O)[C@H](N)C(=O)O; Hyp = O=C(O)[C@@H]1C[C@@H](O)CN1; ξThr(3R) = C[C@@H](O)C(N)C(=O)O
# Experiment: Inventors' finding on stability of micafungin in liquid state
# Format: physicochemical
smiles,measurement,value
"CCCCCOc1ccc(-c2cc(-c3ccc(C(=O)N[C@H]4C[C@@H](O)[C@@H](O)NC(=O)[C@@H]5[C@@H](O)[C@@H](C)CN5C(=O)[C@H]([C@H](O)CC(N)=O)NC(=O)[C@H]([C@H](O)[C@@H](O)c5ccc(O)c(OS(=O)(=O)O)c5)NC(=O)[C@@H]5C[C@@H](O)CN5C(=O)C([C@@H](C)O)NC4=O)cc3)no2)cc1 (stereo partly drawn) [micafungin, Micafungin] (X1-[Orn(4R-OH,5R-OH)][ξThr(3R)][Hyp][hTyr(3S-OH,4S-OH,3'-OSO3H)][Gln(3R-OH)][Pro(3S-OH,4S-Me)]; lactam 1-C)",Stability in liquid state,heat sensitive and shows temperature dependant degradation in liquid state
